According to the supplement of paper PMC11061612:

Tests used:
Experiment in all cases: combination Emax (second highest fraction inhibited in the dose matrix, 72 h); higher = more inhibition; extreme values may be limits of the assay
[1] = test system: AMO-1 (Plasma Cell Myeloma)
Outline: (§1)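 After 24 hours at 37°C and 5% CO2 in 1536-well plates, cells in DMEM/F12 or RPMI plus 10% FBS received two-drug dose matrices for 72 hours. Viability came from CellTiter-Glo 2.0 luminescence and was scaled as inhibition, anchored at 0 by vehicle wells and at 1 by blank wells. Combination Emax is taken as the second-highest inhibition in the matrix, and Bliss excess as the observed combination effect less EA + EB − EA·EB, with EA and EB the single-agent effects.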

[2] = test system: C-4-I (Cervical Carcinoma)
Outline: as §1

EW-24 (Ewing's Sarcoma) = test system: EW-24 (Ewing's Sarcoma)
Outline: as §1

[3] = test system: EoL-1-cell (Acute Myeloid Leukemia)
Outline: as §1

[4] = test system: HSC-4 (Oral Cavity Carcinoma)
Outline: as §1

[5] = test system: Hs-766T (Pancreatic Carcinoma)
Outline: as §1

[6] = test system: KARPAS-299 (T-Cell Non-Hodgkin's Lymphoma)
Outline: as §1

[7] = test system: KMOE-2 (Acute Myeloid Leukemia)
Outline: as §1

[8] = test system: KYSE-450 (Esophageal Squamous Cell Carcinoma)
Outline: as §1

[9] = test system: LU-65 (Non-Small Cell Lung Carcinoma)
Outline: as §1

[10] = test system: NCI-H1915 (Non-Small Cell Lung Carcinoma)
Outline: as §1

[11] = test system: NCI-H358 (Lung Adenocarcinoma)
Outline: as §1

[12] = test system: NEC8 (Other Solid Carcinomas)
Outline: as §1

[13] = test system: NUGC-3 (Gastric Carcinoma)
Outline: as §1

PWR-1E (Non-Cancerous) = test system: PWR-1E (Non-Cancerous)
Outline: as §1

[14] = test system: SCC-15 (Oral Cavity Carcinoma)
Outline: as §1

[15] = test system: SW13 (Other Solid Carcinomas)
Outline: as §1

[16] = test system: TE-1 (Esophageal Squamous Cell Carcinoma)
Outline: as §1

UACC-62 (Melanoma) = test system: UACC-62 (Melanoma)
Outline: as §1

[17] = test system: VA-ES-BJ (Other Solid Carcinomas)
Outline: as §1

| Compound | combination Emax [1] | combination Emax [2] | combination Emax (EW-24 (Ewing's Sarcoma)) | combination Emax [3] | combination Emax [4] | combination Emax [5] | combination Emax [6] | combination Emax [7] | combination Emax [8] | combination Emax [9] | combination Emax [10] | combination Emax [11] | combination Emax [12] | combination Emax [13] | combination Emax (PWR-1E (Non-Cancerous)) | combination Emax [14] | combination Emax [15] | combination Emax [16] | combination Emax (UACC-62 (Melanoma)) | combination Emax [17] |
| --- | --- | --- | --- | --- | --- | --- | --- | --- | --- | --- | --- | --- | --- | --- | --- | --- | --- | --- | --- | --- |
| COc1nnc2ccc(N3CCC(c4ccc(OCCN5CCN(C)C(=O)[C@H]5C)cc4)CC3)nn12 [AZD5153] + C[C@@H]1COCCN1C2=NC(=NC(=C2)C3(CC3)[S@](=N)(=O)C)C4=C5C=CNC5=NC=C4 [AZD6738] (first compound max 1 µM, 7x7, partner max 10 µM) | 0.978 | 0.876 | 0.834 | 1 | 0.528 | 0.543 | 0.985 | 0.988 | 0.481 | 0.734 | 0.546 | 0.698 | 0.954 | 0.775 | 0.997 | 0.524 | 0.718 | 0.617 | 0.664 | 0.799 |
| COc1cccc(OCCCN)c1-c1cc(Nc2cnc(C#N)cn2)n[nH]1 [Prexasertib] + CCc1c2c(nc3ccc(O)cc13)-c1cc3c(c(=O)n1C2)COC(=O)[C@]3(O)CC [SN-38] (first compound max 1 µM, 7x7, partner max 0.3 µM) | 0.968 | 0.999 | 0.832 | 0.996 | 0.9 | 0.655 | 0.992 | 0.999 | 0.996 | 0.926 | 0.89 | 0.897 | 1 | 0.976 | 1 | 0.802 | 0.996 | 0.902 | 0.817 | 0.914 |
| CC1(C)CCC(CN2CCN(c3ccc(C(=O)NS(=O)(=O)c4ccc(NCC5CCOCC5)c([N+](=O)[O-])c4)c(Oc4cnc5[nH]ccc5c4)c3)CC2)=C(c2ccc(Cl)cc2)C1 [Venetoclax] + COc1cc(Nc2ncc3c(n2)-c2ccc(Cl)cc2C(c2c(F)cccc2OC)=NC3)ccc1C(=O)O [Alisertib] (first compound max 1 µM, 7x7, partner max 10 µM) | 0.868 | 0.804 | 0.428 | 1 | 0.28 | 0.393 | 0.762 | 0.928 | 0.437 | 0.314 | 0.455 | 0.442 | 0.183 | 0.436 | 0.859 | 0.378 | 0.599 | 0.635 | 0.314 | 0.505 |
| Cc1c2c(nn1C)CSCc1cc(n(C)n1)CSc1cc(c3ccccc3c1)OCCCc1c(C(=O)O)n(C)c3c-2c(Cl)ccc13 [AZD5991] + C=CCn1c(=O)c2cnc(Nc3ccc(N4CCN(C)CC4)cc3)nc2n1-c1cccc(C(C)(C)O)n1 [AZD1775] (first compound max 1 µM, partner max 1 µM) | 1 | 1 | 0.402 | 1 | 0.507 | 0.496 | 0.992 | 0.992 | 0.763 | 0.586 | 0.649 | 0.649 | 0.851 | 0.78 | 0.55 | 0.437 | 0.881 | 0.89 | 0.901 | 0.6 |
